The values that follow come from US20240059669A1, “COCRYSTAL OF A CDK INHIBITOR” (AURIGENE ONCOLOGY LIMITED, priority 2020, published 2024).

Structures are written as SMILES. Counter-ions that a name gives are not always drawn.

Common to all, as to assay type: physicochemical
Series [1] in a line: Equilibrium solubility in various media (shaker water bath, HPLC analysis). Conditions: for Solubility (mg/ml) ± SD: 24 hrs. The protocol:
Equilibrium solubility of compound of formula (I) free base and compound of formula (I) fumarate were measured in various medium. Excess quantities of compound of formula (I) and compound of formula (I) fumarate were added to glass vials containing different medium. These vials were kept for shaking in shaker water bath at appropriate temperature (25° C. for water and 37° C. for buffers) at 200 rpm. The obtained preparations were filtered and analysed by means of HPLC.

Series [2] is described as follows: 6-month storage stability of solid form (XRPD, particle morphology). As to conditions: 6 months.
Series [3] can be described thus: Variable temperature X-ray diffraction (VT-XRD) physical stability. Conditions: 25° C., 40° C. and 60° C.; isothermal hold of 60 min. An excerpt: An Anton Paar temperature-humidity chamber (THC) was used to collect in situ XRPD patterns as a function of humidity. The humidity was generated with an RH-200 manufactured by VTI Inc. and carried by a flow of nitrogen gas. The humidity and temperature was monitored by a HygroClip sensor manufactured by Rotronic located next to the specimen inside the THC. XRPD patterns were collected with a PANalytical X'Pert PRO MPD diffractometer in symmetric Bragg-Brentano reflection geometry. Isothermal hold of 60 min given at specified temperature. Heating rate was kept at 10° C./min. Approximately 200 mg sample used for VT-XRD analysis. Cu Kα radiation was produced using a long, fine-focus source operated at 45 kV and 40 mA. The incident beam was conditioned using a nickel filter, a 0.02-rad Soller slit, a 11.6-mm fixed incident beam mask, a fixed 0.76-mm ½° antiscatter slit, and a fixed 0.38-mm ¼° divergence slit. The diffracted beam was conditioned using a 5-mm antiscatter slit, a 0.04-rad Soller slit. The diffraction patterns were collected using a scanning position-sensitive detector (X'Celerator) located 240 mm from the sample. Data were collected and analyzed using Data Collector software v. 5.5.
VT-XRD analysis confirmed that compound of formula (I)-fumaric acid cocrystal remained stable and no solid form transformation/phase change occurred even at higher temperature conditions. […]

The nature of series [4]: Variable humidity X-ray diffraction (VH-XRD) physical stability. Conditions: 40% RH to 85% RH sorption then desorption to 40% RH, 1 hr at each RH level. How it is done: An Anton Paar TTK 450 stage was used to collect in situ XRPD patterns as a function of temperature. The sample was heated with a resistance heater located directly under the sample holder, and the temperature was monitored with a platinum-100 resistance sensor located in the specimen holder. The heater was powered and controlled by an Anton Paar TCU 100 interfaced with Data Collector. Approximately 200 mg sample used for VH-XRD analysis.
The compound of present invention was exposed to various humidity conditions. The sample, i.e., compound of formula (I) fumarate, was exposed from 40% RH to 85% RH followed by desorption cycle from 85% to 40% RH. The samples were equilibrated for 1 hr at each RH level (both sorption and desorption). […] See, FIG. 6B.

Series [5] is described as follows: Dynamic vapor sorption (DVS) moisture uptake study. As to conditions: at 90% RH, 25° C. The protocol: The moisture uptake study of compound of present invention was performed with a DVS instrument (Q5000SA, TA instruments, New Castle, Delaware, USA) at 25° C. to evaluate the physical stability of compound of present invention against moisture or tendency to adsorb moisture. The instrument consisted of a microbalance housed inside a temperature-controlled chamber. The humidity was controlled via switching valves, which control the flow of a dry gas (nitrogen) through a humidification stage. Instrument was programmed for moisture sorption from 40 to 90% RH in 10% RH steps at 25±0.1° C. using an equilibrium condition. The equilibrium condition was set to <0.01% total mass change within 10 min and with a maximum dwell time of 60 min followed by desorption from 90% RH to 10% RH steps. The equilibrium condition for desorption was set to <0.01% total mass change within 10 min and with a maximum dwell time of 60 min.

The mark [6] stands for this setting: pH 4.5 Acetate buffer USP, 37° C.
Where [7] appears, read: pH 5.8 Phosphate buffer USP, 37° C.
The mark [8] stands for this setting: pH 6.8 Phosphate buffer USP, 37° C.

For `CC(C)[C@H](C(=O)Nc1cc(C2CC2)[nH]n1)c1cccc(-c2ccc(NC(=O)/C=C/CN3CCOCC3)nc2)c1` [Formula (I) free base, (S, E)-N-(5-(3-(1-((5-cyclopropyl-1H-pyrazol-3-yl)amino)-3-methyl-1-oxobutan-2-yl)phenyl)pyridin-2-yl)-4-morpholinobut-2-enamide], the “Solubility (mg/ml) ± SD” value in series [1] (Purified water, 25° C.) worked out at 0.0013 ± 0.0001 mg/mL; in series [1] (setting [6]), 0.07 ± 0.004 mg/mL; in series [1] (setting [7]), 0.002 ± 0.0001 mg/mL; in series [1] (setting [8]), 0.0005 ± 0.0002 mg/mL. The solubility at 24 h in series [1] (pH 2.8 acid phthalate buffer USP, 37 °C, pH 2.8, aqueous buffer, thermodynamic from solid, pH 2.8 Acid Phthalate buffer USP, 37° C., read-out: Solubility (mg/ml) ± SD) is 0.065 ± 0.004 mg/mL.

Take `CC(C)[C@H](C(=O)Nc1cc(C2CC2)[nH]n1)c1cccc(-c2ccc(NC(=O)/C=C/CN3CCOCC3)nc2)c1` [Formula (I) fumarate]: the “solid form and particle morphology after storage” value in series [2] (25° C./60% RH) and in series [2] (40° C./75% RH) was “remained unchanged” in each case. Further, the “physical stability at different temperature conditions (VT-XRD)” value in series [3] is given as “physically stable”. Besides, the “physical stability at different relative humidity conditions (VH-XRD)” value in series [4] is reported as “remained physically stable”. In addition, in series [5], the “weight/moisture gained (DVS)” value was “About 0.646 % w/w”. Moreover, the “Solubility (mg/ml) ± SD” value was found to be 0.280 ± 0.004 mg/mL in series [1] (Purified water, 25° C.); 0.114 ± 0.017 mg/mL in series [1] (pH 2.8 Acid Phthalate buffer USP, 37° C.); 0.171 ± 0.001 mg/mL in series [1] (setting [6]); 0.014 ± 0.004 mg/mL in series [1] (setting [7]); 0.014 ± 0.009 mg/mL in series [1] (setting [8]).
